According to patent publication US9744186B2 (priority 2012, dated 2017):

Legend:
[1] = test system: HCV luciferase replicon; assay: Reversal of anti-HCV activity by exogenous nucleosides; format: cell-based, hepatitis C virus (HCV); details: drug 1000, 100 or 25 nM; 50 μM cytidine or 2′-deoxycitidine; 48 h
Method: After 48 hours, the cells were lysed, and the total luciferase activity was determined. […] Where indicated, either 50 μM cytidine (C) or 50 μM 2′-deoxycitidine (dC) was also included.
The cells were plated, incubated with drug, and luciferase activity assayed essentially as described herein above. The incubation with drug was for 48 h.

[2] = TC50 MTS assay with human cancer cell lines: Huh7; format: cell-based; details: human, Huh7 cells; 96 h drug treatment
Method: (§1) Plating Cells: The Huh7, HEPG2, HEK293, MCF-7, PK9, RPK9, or BxPC3 cells were passaged when they were about 70% confluent. The cells were counted using a hemocytometer, and then diluted cells to 0.5×10^5 cells per mL in DMEM+10% FBS. 100 µL of the cells (5,000 cells) were plated per well in a clear 96-well plate. The cells were allowed to attach for 24 hours at 37° C.
(§2) Treating the cells: Pre-warm the DMEM media without phenol red+2% FBS media to 37° C. […] This will bring the final DMSO concentration to 0.5%. Use these 0.5 mM dilutions to further serially the drugs in DMEM without phenol red+2% FBS+0.5% DMSO. This will keep the concentration of DMSO in each condition identical. Remove the 96-well plate from the 37° C. incubator. Replace the media on the plate with the dilutions of the drugs. Stagger these treatments by 1 h and write the treatment time on each set of plates. Return to 37° C. for 48 h or 96 h as indicated.
(§3) MTS Assay: The reagents from CellTiter 96 kit (Promega Corporation, Madison, Wis.) were thawed at room temperature in the dark for 1 h. The 96-well plate was removed from the 37° C. incubator at 48 h after drug treatment. 20 μL of the combined MTS/PMS reagent to each well of the plate, mixed, and the plate returned to 37° C. The absorbance of each well at 490 nm and 650 nm was determined using the Flexstation 3 microplate reader in endpoint mode every hour for 3 h. The solutions in the wells were mixed prior to each reading. Fit Data to the Emax model: y=(Emax*x)/(TC50+x), where Emax is the maximum inhibition and TC50 is the inhibitory dose 50%. Alternatively, fit the data to the Emax sigmoidal model: y=(Emax*x^slope)/(TC50^slope+x^slope), where slope is the Hill Slope.
(§4) Each TC50 was the average value of three measurements as described herein. […] The RPK9 cells are deficient in deoxycytidine kinase (“dCK”) activity, an enzyme required for the initial phosphorylation of dFdC to dFdCMP (see FIG. 2).

[3] = TC50 MTS assay with human cancer cell lines: HEK293; format: cell-based; details: HEK293 cells, 96 h drug treatment
Method: as §1, §2, §3, §4

[4] = Compound solubility in media; format: physicochemical; details: DMEM+2% FBS cell culture media, 37 °C, plasma or biological fluid, kinetic from dmso stock; DMEM+2% FBS media
Method: (§5) Treating the cells: Media (DMEM+2% FBS) was pre-warmed to 37° C. […] The 96-well plate was removed from the 37° C. incubator, and the media replaced on the plate with the serial dilutions of the test drug. The plate was then returned to 37° C. for 48 h.

[5] = test system: HCV luciferase replicon; assay: HCV luciferase replicon IC50 assay in Huh7 cells; details: for IC50: Hepatitis C virus; for Therapeutic Index (TC50/IC50): TC50 in Huh7 / IC50 HCV replicon, 48 h
Method: Plating Cells: The Luciferase replicon cell line was passaged when it was at about 70% confluency. The cells were counted by using a hemocytometer and diluted to 1×10^5 cells per mL in DMEM+10% FBS+[…] G415. The cells were plated as follows: 100 μL of the cells (10,000 cells) per well in a white-walled 96-well plate. The cells were allowed to attach for 24 hours at 37° C.
as §5
Luciferase Assay: The Bright-Glo reagent (Promega Corporation, Madison, Wis.) was removed from the −80° C. freezer and allowed to thaw it at 4° C. in the dark. The amount of reagent necessary for the experiment (3.65 mL) was removed, and the remaining reagent was returned to −80° C. The Glo Lysis Buffer and the Bright Glow reagent were allowed to warm to room temperature for 30 min in the dark. The 96 well plate was removed from the incubator and the cells to allowed cool to room temperature for 30 min. The media was removed from the cells, and each well was gently washed in 100 μL of phosphate buffered saline (PBS). The PBS was removed and then 50 μL of the Glo Lysis Buffer was added to each well, followed by gently rocking the plate for 15 min at room temperature in the dark to ensure complete cell lysis. To each well of the 96-well plate was added 50 μL of the Bright Glo reagent and it was mixed well with the lysate. The plate was inserted into a GloMax 96 plate reader and allowed to sit for 5 min in the dark for the luciferase reaction to reach a steady state. The luminescence on the plate was read by using the pre-installed “Bright Glo” Promega program (Synergy Software) and the data were collected and saved. The data were fit to a 4 parameter logistic curve using Kaleidagraph using the following equation: 100/(1+(x/m3)^m4).
The data in Table 1 were determined for cells exposed to drug for 48 h. The IC50 is the concentration of each compound necessary to inhibit the replication of the HCV luciferase replicon to 50%.
That is, the cells were exposed to drug for 2 h at 37° C., followed by 46 h at 37° C. or incubated in the presence of drug for 48 h at 37° C.

[6] = TC50 MTS assay with human cancer cell lines: MCF-7; format: cell-based; details: MCF-7 cells, 96 h drug treatment
Method: as §1, §2, §3, §4

[7] = Huh-7, 48 h, Huh7 cells containing HCV luciferase replicon, cells exposed to drug for 48 h

| SMILES | reversal of the inhibition of the HCV luciferase replicon by deoxycytidine and cytidine [1] | CC50 at 96 h [2] [nM] | CC50 at 96 h [3] [nM] | solubility [4] [µM] | IC50 [5, 7] [nM] | Therapeutic Index (TC50/IC50) [5] | CC50 at 96 h [6] [nM] | IC50 ([5]; Huh-7, 48 h, cells incubated with drug continuously for 48 h (Table 5)) [nM] | IC50 ([5]; Huh-7, cells incubated with drug for 2 h, followed by 46 h without drug) [nM] |
| --- | --- | --- | --- | --- | --- | --- | --- | --- | --- |
| O=C(Nc1ccn([C@@H]2O[C@H](CO)[C@@H](O)C2(F)F)c(=O)n1)c1cc(Cl)cc(Cl)c1 [GCB, N^4-(3,5-Dichlorobenzoyl)gemcitabine] | reversal | 4170 ± 1060 | 1190 ± 180 | < 500 | 25.5 ± 2.2 | 4310 | 326 ± 88 | – | – |
| COc1cc(C(=O)Nc2ccn([C@@H]3O[C@H](CO)[C@@H](O)C3(F)F)c(=O)n2)cc(OC)c1OC [GTB, N^4-(3,4,5-Trimethoxybenzoyl)gemcitabine] | reversal | 5050 ± 1220 | 1280 ± 260 | > 500 | 49.3 ± 8.8 | 10040 | 566 ± 118 | 49.3 ± 8.8 | 2770 ± 265 |
